The values below come from patent publication US9440969B2, “Compounds and methods for kinase modulation, and indications therefor” (PLEXXIKON INC., priority 2009, dated 2016).

Assay [1] concerns the target B-Raf (Homo sapiens, UniProt P15056). Put plainly: B-Raf kinase activity assay (AlphaScreen, biotin-MEK1 substrate). As to conditions: 100 μM ATP, 100 nM biotin-MEK1, 45 minutes at room temperature; read-out: Biochemical activity (IC50 μM) B-Raf. The essentials: (§1)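 AlphaScreen detection of phospho-MEK1 uses anti-phospho-MEK1/2 antibody and donor/acceptor beads, incubated 3 h. The kinase step runs 45 min at room temperature with 0.1 ng enzyme, 100 nM biotin-MEK1 and 100 μM ATP in 50 mM HEPES pH 7.0. IC50 is derived from eight compound concentrations.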

For assay [2], the target named is B-Raf V600E (Homo sapiens, UniProt P15056, V600E). Briefly: B-Raf V600E kinase activity assay (AlphaScreen, biotin-MEK1 substrate). Particulars: 100 μM ATP, 100 nM biotin-MEK1, 45 minutes at room temperature, read-out: Biochemical activity (IC50 μM) V600E. The essentials: as §1
B-Raf V600E, sequence (P15056 whole entry V600E): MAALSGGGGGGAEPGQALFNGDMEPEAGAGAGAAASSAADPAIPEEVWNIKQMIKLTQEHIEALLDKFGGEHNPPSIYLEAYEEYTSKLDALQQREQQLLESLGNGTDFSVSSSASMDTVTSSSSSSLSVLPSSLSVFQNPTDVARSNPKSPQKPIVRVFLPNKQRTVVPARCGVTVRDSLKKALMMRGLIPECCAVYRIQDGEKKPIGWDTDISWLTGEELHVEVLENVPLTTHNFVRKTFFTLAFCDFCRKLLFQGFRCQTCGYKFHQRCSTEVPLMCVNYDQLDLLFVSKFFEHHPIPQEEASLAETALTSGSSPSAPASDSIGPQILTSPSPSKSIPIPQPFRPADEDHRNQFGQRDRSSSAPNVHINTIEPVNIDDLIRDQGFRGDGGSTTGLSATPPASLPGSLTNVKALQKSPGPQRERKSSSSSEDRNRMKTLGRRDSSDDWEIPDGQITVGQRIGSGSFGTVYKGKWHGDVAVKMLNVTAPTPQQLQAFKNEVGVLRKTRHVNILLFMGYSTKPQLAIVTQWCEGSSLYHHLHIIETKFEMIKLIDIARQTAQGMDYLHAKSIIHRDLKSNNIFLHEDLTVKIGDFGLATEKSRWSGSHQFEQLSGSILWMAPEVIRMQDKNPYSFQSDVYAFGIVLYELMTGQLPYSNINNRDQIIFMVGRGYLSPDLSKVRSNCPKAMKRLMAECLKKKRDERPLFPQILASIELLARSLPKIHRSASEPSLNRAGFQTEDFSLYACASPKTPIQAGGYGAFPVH
Assay [3] deals with c-Raf-1 (Homo sapiens, UniProt P04049). Put plainly: c-Raf-1 kinase activity assay (AlphaScreen, biotin-MEK1 substrate). As to conditions: 100 μM ATP, 100 nM biotin-MEK1, 45 minutes at room temperature; read-out: Biochemical activity (IC50 μM) c-Raf-1. Summed up: as §1
c-Raf-1, sequence (P04049 whole entry Y340D/Y341D, form open): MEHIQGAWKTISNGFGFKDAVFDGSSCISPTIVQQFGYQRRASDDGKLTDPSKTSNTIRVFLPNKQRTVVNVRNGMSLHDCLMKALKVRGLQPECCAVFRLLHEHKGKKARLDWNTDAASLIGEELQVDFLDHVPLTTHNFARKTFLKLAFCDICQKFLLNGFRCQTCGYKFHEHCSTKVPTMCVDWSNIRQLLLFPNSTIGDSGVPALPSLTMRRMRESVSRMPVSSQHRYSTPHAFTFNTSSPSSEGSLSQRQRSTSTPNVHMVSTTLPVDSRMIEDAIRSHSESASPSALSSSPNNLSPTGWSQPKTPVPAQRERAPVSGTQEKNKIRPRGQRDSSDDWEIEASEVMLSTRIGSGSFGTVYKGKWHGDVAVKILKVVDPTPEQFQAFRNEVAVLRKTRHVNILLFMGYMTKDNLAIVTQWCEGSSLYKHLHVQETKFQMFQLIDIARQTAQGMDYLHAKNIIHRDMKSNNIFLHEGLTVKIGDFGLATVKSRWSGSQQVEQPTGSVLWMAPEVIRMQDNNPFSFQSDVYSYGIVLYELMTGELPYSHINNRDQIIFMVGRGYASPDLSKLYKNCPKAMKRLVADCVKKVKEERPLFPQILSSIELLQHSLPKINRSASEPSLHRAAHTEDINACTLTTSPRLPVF
For assay [4], the target named is T1, CYP1A2 (Homo sapiens, UniProt P05177).
T1 sequence (P05177 1-516): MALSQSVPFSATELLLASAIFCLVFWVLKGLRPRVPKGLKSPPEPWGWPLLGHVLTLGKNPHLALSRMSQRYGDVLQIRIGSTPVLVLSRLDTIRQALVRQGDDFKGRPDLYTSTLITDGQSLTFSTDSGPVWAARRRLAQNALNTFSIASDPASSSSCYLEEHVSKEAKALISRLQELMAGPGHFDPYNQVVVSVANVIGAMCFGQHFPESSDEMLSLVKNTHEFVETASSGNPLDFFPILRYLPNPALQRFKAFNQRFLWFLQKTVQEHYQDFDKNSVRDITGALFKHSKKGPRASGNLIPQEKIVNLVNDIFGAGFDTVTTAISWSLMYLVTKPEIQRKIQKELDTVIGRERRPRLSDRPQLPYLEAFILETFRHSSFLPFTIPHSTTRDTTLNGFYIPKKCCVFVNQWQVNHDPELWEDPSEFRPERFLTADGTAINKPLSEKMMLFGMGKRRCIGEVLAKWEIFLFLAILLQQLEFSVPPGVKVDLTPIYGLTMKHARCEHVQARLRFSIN
Briefly: CYP1A2 inhibition (fluorescent substrate CEC). In kind it is in vitro ADME. As to conditions: read-out: Cyp IC50 (μM) 1A2. The procedure:
(§2) CYP (Cytochrome P450) enzymes are the major drug metabolizing enzymes present in the liver. The inhibition of CYP enzyme activity (IC50) for each of CYP1A2, CYP2C19, CYP2C9, CYP2D6, CYP3A4(BFC) and CYP3A4(BQ) is determined for compounds, where inhibition of metabolism of a known substrate leads to a decrease in the fluorescence of the metabolized product. The fluorescence of the product is monitored as a function of compound concentration. Compounds are dissolved in dimethyl sulfoxide to a concentration of 100 mM. These are diluted […], into 82 μL of acetonitrile. An 11 μL aliquot of this solution is then added to 204 μL of cofactor mix (1.3% NADPH Regeneration system Solution A, 1.04% NADPH Regeneration system Solution B from BD Biosciences, 5% acetonitrile and 0.05% dimethyl sulfoxide). These are then serially diluted 1:1 (160 μL to 160 μL co-factor mix) for a total of 10 points. A 10 μL aliquot of this final mixture is dispensed into 384 well assay plates and incubated for 10 minutes at 37° C. Enzyme and substrate mix (10 μL; 0.5 pmol CYP1A2/5 μM CEC; 1.0 pmol CYP2C9/75 μM MFC; 0.5 pmol CYP2C19/25 μM CEC; 1.5 pmol CYP2D6/1.5 μM AMMC; 1.0 pmol CYP3A4/50 μM BFC; or 1.0 pmol CYP3A4/40 μM BQ) is added to these assay plates. Assay plates are incubated at 37° C. (CYP1A2-15 min; CYP2C9-45 min; CYP2C19, 2D6 and 3A4-30 min) and read in a Tecan Safire 2 plate reader (CYP1A2, 2C19 and 3A4 409 ex/460 em; CYP2C9 and 2D6 409 ex/530 em). The signal versus compound concentration is used to determine the IC50. The enzymes and substrates for this assay are obtained from BD Biosciences.

Assay [5] has as its target CYP2C19 (Homo sapiens, UniProt P33261). Put plainly: CYP2C19 inhibition (fluorescent substrate CEC). Format: in vitro ADME. Particulars: read-out: Cyp IC50 (μM) 2C19. The procedure:
as §2

Assay [6] addresses CYP2D6 (Homo sapiens, UniProt P10635). Put plainly: CYP2D6 inhibition (fluorescent substrate AMMC). Format: in vitro ADME. Particulars: read-out: Cyp IC50 (μM) 2D6. The procedure: as §2
Assay [7] has as its target CYP3A4(BFC) (Homo sapiens, UniProt P08684). Put plainly: CYP3A4 inhibition (substrate BFC). Particulars: read-out: Cyp IC50 (μM) 3A4(BFC). In kind it is in vitro ADME. The protocol: as §2

Where only a bound is given, the exact number is not on record here.

CYP3A4(BFC), sequence (P08684 whole entry): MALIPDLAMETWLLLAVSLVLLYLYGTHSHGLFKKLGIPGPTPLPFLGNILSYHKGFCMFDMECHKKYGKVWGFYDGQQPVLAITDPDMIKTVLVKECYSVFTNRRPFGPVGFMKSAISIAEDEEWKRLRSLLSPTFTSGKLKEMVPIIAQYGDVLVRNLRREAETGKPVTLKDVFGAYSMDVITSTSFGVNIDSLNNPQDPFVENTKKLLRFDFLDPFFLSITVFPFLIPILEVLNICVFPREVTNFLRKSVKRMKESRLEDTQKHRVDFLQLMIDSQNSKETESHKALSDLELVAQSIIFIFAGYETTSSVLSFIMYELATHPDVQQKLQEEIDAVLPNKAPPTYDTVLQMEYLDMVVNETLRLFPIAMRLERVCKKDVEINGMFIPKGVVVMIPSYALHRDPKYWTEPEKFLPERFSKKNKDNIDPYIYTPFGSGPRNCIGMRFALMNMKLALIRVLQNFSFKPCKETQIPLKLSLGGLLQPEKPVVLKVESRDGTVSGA
CYP2C19, sequence (P33261 whole entry): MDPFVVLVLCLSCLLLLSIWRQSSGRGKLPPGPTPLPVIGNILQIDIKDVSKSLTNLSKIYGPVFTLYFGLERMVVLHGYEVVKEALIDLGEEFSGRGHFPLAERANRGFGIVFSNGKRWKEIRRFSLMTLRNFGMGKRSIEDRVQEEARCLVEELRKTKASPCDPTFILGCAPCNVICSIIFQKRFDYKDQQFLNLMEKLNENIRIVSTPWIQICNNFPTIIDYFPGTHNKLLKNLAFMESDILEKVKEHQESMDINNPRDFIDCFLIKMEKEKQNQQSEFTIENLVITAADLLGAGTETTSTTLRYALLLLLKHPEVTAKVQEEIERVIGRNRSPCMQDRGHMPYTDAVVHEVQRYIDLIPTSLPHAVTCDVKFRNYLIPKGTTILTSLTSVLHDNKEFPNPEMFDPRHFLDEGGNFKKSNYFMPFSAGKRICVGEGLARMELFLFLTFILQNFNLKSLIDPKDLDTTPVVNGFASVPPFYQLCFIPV
B-Raf, sequence (P15056 whole entry): as the sequence (P15056 whole entry V600E) above, with E600V counted along it
CYP2D6, sequence (P10635 whole entry): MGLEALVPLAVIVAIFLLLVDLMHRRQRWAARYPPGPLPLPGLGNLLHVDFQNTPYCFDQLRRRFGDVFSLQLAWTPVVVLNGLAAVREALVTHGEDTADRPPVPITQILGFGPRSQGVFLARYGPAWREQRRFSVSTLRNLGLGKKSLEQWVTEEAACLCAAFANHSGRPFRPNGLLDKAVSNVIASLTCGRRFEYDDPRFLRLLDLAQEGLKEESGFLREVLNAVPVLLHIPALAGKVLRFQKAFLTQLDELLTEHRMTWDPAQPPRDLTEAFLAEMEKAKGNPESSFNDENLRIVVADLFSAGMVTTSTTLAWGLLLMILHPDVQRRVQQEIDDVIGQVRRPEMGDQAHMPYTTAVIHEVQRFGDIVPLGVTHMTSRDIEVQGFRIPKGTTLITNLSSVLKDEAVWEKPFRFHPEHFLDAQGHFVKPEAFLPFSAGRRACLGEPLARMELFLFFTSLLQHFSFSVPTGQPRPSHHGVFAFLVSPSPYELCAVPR

On to `CC(=O)n1cc(C(=O)c2c(F)ccc(NS(=O)(=O)c3cc(F)ccc3F)c2F)c2cc(-c3ccc4c(cnn4C(C)=O)c3)cnc21` [P-0004, N-{3-[1-Acetyl-5-(1-acetyl-1H-indazol-5-yl)-1H-pyrrolo[2,3-b]pyridine-3-carbonyl]-2,4-difluoro-phenyl}-2,5-difluoro-benzenesulfonamide], for which the IC50 in assay [1] is less than 0.1 µM; in assay [2], less than 0.1 µM; in assay [3], less than 0.1 µM; in assay [4], more than 10 µM; in assay [5], less than 5 µM; in assay [6], more than 10 µM. The IC50 in assay [7] was more than 10 µM.

Turning to `CCCS(=O)(=O)Nc1ccc(F)c(C(=O)c2c[nH]c3ncc(-c4ccc5[nH]ccc5c4)cc23)c1F` [P-0012, Propane-1-sulfonic acid {2,4-difluoro-3-[5-(1H-indol-5-yl)-1H-pyrrolo[2,3-b]pyridine-3-carbonyl]-phenyl}-amide], the IC50 is less than 0.1 µM in assay [1]; less than 0.1 µM in assay [2]; less than 0.1 µM in assay [3]; more than 10 µM in assay [4]; less than 5 µM in assay [5]; more than 10 µM in assay [6]. The IC50 in assay [7] is 5 to 10 µM.

As to `Cc1ccc(-c2cnc3[nH]cc(C(=O)c4c(F)ccc(NS(=O)(=O)c5cc(F)ccc5F)c4F)c3c2)cn1` [P-1408, N-{2,4-Difluoro-3-[5-(6-methyl-pyridin-3-yl)-1H-pyrrolo[2,3-b]pyridine-3-carbonyl]-phenyl}-2,5-difluoro-benzenesulfonamide], the IC50 in assay [1] was less than 0.1 µM; in assay [2] it was less than 0.1 µM; in assay [3] it was less than 0.1 µM; in assay [4], more than 10 µM; in assay [5] it was more than 10 µM; in assay [6] it was more than 10 µM. Further, the 50% inhibitory concentration (IC50) in assay [7] is more than 10 µM.

For `CCCS(=O)(=O)Nc1ccc(F)c(C(=O)c2c[nH]c3ncc(-c4ccc5c(cnn5C(C)=O)c4)cc23)c1F` [P-0007, propane-1-sulfonic acid {3-[5-(1-acetyl-1H-indazol-5-yl)-1H-pyrrolo[2,3-b]pyridine-3-carbonyl]-2,4-difluoro-phenyl}-amide], the IC50 was less than 0.1 µM in assay [1]; less than 0.1 µM in assay [2]; approximately 0.1 µM in assay [3]; less than 5 µM in assay [4]; less than 5 µM in assay [5]; more than 10 µM in assay [6]. Moreover, the IC50 in assay [7] was more than 10 µM.

Consider `CCCS(=O)(=O)Nc1ccc(F)c(C(=O)c2c[nH]c3ncc(-c4ccc5[nH]ncc5c4)cc23)c1F` [P-0001, propane-1-sulfonic acid {2,4-difluoro-3-[5-(1H-indazol-5-yl)-1H-pyrrolo[2,3-b]pyridine-3-carbonyl]-phenyl}-amide], for which the IC50 is less than 0.1 µM in assay [1]; less than 0.1 µM in assay [2]; less than 0.1 µM in assay [3]; more than 10 µM in assay [4]; less than 5 µM in assay [5]; more than 10 µM in assay [6]. The IC50 in assay [7] is more than 10 µM.

As to `CC(=O)N(c1ccc(F)c(C(=O)c2cn(C(C)=O)c3ncc(-c4ccc5c(cnn5C(C)=O)c4)cc23)c1F)S(=O)(=O)c1cc(F)ccc1F` [P-0006, N-Acetyl-N-{3-[1-acetyl-5-(1-acetyl-1H-indazol-5-yl)-1H-pyrrolo[2,3-b]pyridine-3-carbonyl]-2,4-difluoro-phenyl}-2,5-difluoro-benzenesulfonamide], the IC50 in assay [1] is less than 0.1 µM; in assay [2], less than 0.1 µM; in assay [3] it was less than 0.1 µM; in assay [4] it was 5 to 10 µM; in assay [5], 5 to 10 µM; in assay [6], more than 10 µM. Moreover, the IC50 in assay [7] was more than 10 µM.

As for `CCCS(=O)(=O)Nc1ccc(F)c(C(=O)c2c[nH]c3ncc(-c4ccc5nn(C)cc5c4)cc23)c1F` [P-0010, Propane-1-sulfonic acid {2,4-difluoro-3-[5-(2-methyl-2H-indazol-5-yl)-1H-pyrrolo[2,3-b]pyridine-3-carbonyl]-phenyl}-amide], the IC50 in assay [1] is less than 0.1 µM; in assay [2], less than 0.1 µM; in assay [3], less than 0.1 µM; in assay [4], more than 10 µM; in assay [5] it was more than 10 µM; in assay [6], more than 10 µM. Besides, the half-inhibitory concentration (IC50) in assay [7] is more than 10 µM.

Regarding `CCCS(=O)(=O)Nc1ccc(F)c(C(=O)c2c[nH]c3ncc(-c4cnn(C5CCNCC5)c4)cc23)c1F` [P-1002, Propane-1-sulfonic acid {2,4-difluoro-3-[5-(1-piperidin-4-yl-1H-pyrazol-4-yl)-1H-pyrrolo[2,3-b]pyridine-3-carbonyl]-phenyl}-amide], the IC50 in assay [1] was less than 0.1 µM; in assay [2], less than 0.1 µM; in assay [3], less than 0.1 µM; in assay [4], more than 10 µM; in assay [5] it was more than 10 µM; in assay [6], more than 10 µM. The IC50 in assay [7] is more than 10 µM.

With `CCCS(=O)(=O)Nc1ccc(F)c(C(=O)c2c[nH]c3ncc(-c4ccc5c(cnn5S(C)(=O)=O)c4)cc23)c1F` [P-0016, propane-1-sulfonic acid {2,4-difluoro-3-[5-(1-methanesulfonyl-1H-indazol-5-yl)-1H-pyrrolo[2,3-b]pyridine-3-carbonyl]-phenyl}-amide], the IC50 was less than 0.1 µM in assay [1]; less than 0.1 µM in assay [2]; less than 0.1 µM in assay [3]; more than 10 µM in assay [4]; more than 10 µM in assay [5]; more than 10 µM in assay [6]. In addition, the IC50 in assay [7] was more than 10 µM.

Take `O=C(c1c(F)ccc(NS(=O)(=O)c2cc(F)ccc2F)c1F)c1c[nH]c2ncc(-c3ccc4[nH]ncc4c3)cc12` [P-0002, N-{2,4-Difluoro-3-[5-(1H-indazol-5-yl)-1H-pyrrolo[2,3-b]pyridine-3-carbonyl]-phenyl}-2,5-difluoro-benzenesulfonamide]: the IC50 is less than 0.1 µM in assay [1]; less than 0.1 µM in assay [2]; less than 0.1 µM in assay [3]; more than 10 µM in assay [4]; 5 to 10 µM in assay [5]; more than 10 µM in assay [6].

As to `CCCS(=O)(=O)Nc1ccc(F)c(C(=O)c2c[nH]c3ncc(-c4cccc5nn(C)cc45)cc23)c1F` [P-0015, Propane-1-sulfonic acid {2,4-difluoro-3-[5-(2-methyl-2H-indazol-4-yl)-1H-pyrrolo[2,3-b]pyridine-3-carbonyl]-phenyl}-amide], the IC50 was less than 0.1 µM in assay [1]; less than 0.1 µM in assay [2]; less than 0.1 µM in assay [3]; more than 10 µM in assay [4]; more than 10 µM in assay [5]; more than 10 µM in assay [6]. Further, in assay [7], the IC50 is more than 10 µM.

For the compound `CCCS(=O)(=O)Nc1ccc(F)c(C(=O)c2c[nH]c3ncc(-c4csc(-n5ccnc5C)n4)cc23)c1F` [P-1101, Propane-1-sulfonic acid (2,4-difluoro-3-{5-[2-(2-methyl-imidazol-1-yl)-thiazol-4-yl]-1H-pyrrolo[2,3-b]pyridine-3-carbonyl}-phenyl)-amide], the IC50 in assay [1] was less than 0.1 µM; in assay [2], less than 0.1 µM; in assay [3] it was less than 0.1 µM; in assay [4], more than 10 µM; in assay [5], more than 10 µM; in assay [6], more than 10 µM. In addition, in assay [7], the IC50 is more than 10 µM.
